Measurements reported in patent US9540691B2, “Assays and methods for selecting a treatment regimen for a subject with depression” (THE GENERAL HOSPITAL CORPORATION, priority 2011, dated 2017).
Read-outs that look alike come from different tables or passages of the source. Marks after values point to notes of the source that are not given here.

System: MDD patients carrying the indicated conditions
Experimental: Folate levels are classified as either low (<=2.5 ng/ml) or normal; and homocysteine levels as either normal or elevated (>=[…]). The presence or absence of at least one […] allele for the MTHFR gene are entered as a dichotomous variable (present or absent). […] Using folate as an example predicator, the presence or absence of a low serum-folate level along with treatment assignment can be entered in a 2×2, factorial ANOVA, using depression improvement scores (baseline minus endpoint HAM-D-17 scores) as the dependant variable. […] Similar analyses (i.e. separate 2×2 ANOVA's) can be performed substituting the presence of low folate levels for the presence of other predictors as described herein. Similarly, the effect of other predictors can be indicated by the interaction term representing the potential modulating influence of those variables.
Particularly, specific genetic and biomarkers that were assessed include the following: • (a) BMI calculation of at least about 30 kg/m^2; • (b) an expression ratio of SAM/SAH smaller than 2.8 (e.g., 2.71) as measured in a plasma sample; • (c) a level of 4-HNE no less than 3.28 μg/mL (as measured in a plasma sample); • (d) presence of rare variants CT or TT at position 677 of SEQ ID NO: 1 corresponding to a portion of a genomic nucleic acid sequence of methylenetetrahydrofolate reductase (MTHFR) (abbreviated as “MTHFR 677” below); • (e) presence of rare variants AG or GG at position 2756 of SEQ ID NO: 2 corresponding to a portion of genomic nucleic acid sequence of methionine synthase (MTR) (abbreviated as “MTR 2756” below); and • (f) presence of rare variants AG or GG at position 66 of SEQ ID NO: 3 corresponding to a portion of genomic nucleic acid sequence of methionine synthase reductase (MTRR) (abbreviated as “MTRR 66” below).
The efficacy effect is determined by measuring the mean change in the HAMD-17 score and HAMD-28 score by the end of Phase I and Phase II, as compared to the baseline.

[1] = Pooled phases, interaction of BMI with the treatment, with SSRI
[2] = Pooled phases, interaction of HNE-his with the treatment, with SSRI
[3] = Pooled phases, interaction of SAM/SAH with the treatment, with SSRI

## CN1c2c(nc(N)[nH]c2=O)NC[C@@H]1CNc1ccc(C(=O)N[C@@H](CCC(=O)O)C(=O)O)cc1 [6(S)-5-MTHF, 6(S)-5-methyltetrahydrofolate]
Pooled phases, MTHFR 677 CC and MTR 2756 AA (29,13), with SSRI
  Effect, change in HAMD-17 score: 0.722
Pooled phases, MTHFR 677 CC and MTR 2756 AA, with SSRI
  Effect, change in HAMD-28 score: 0.711
Pooled phases, MTHFR 677 CT or TT and BMI >= 30 kg/m^2 (13,6), with SSRI
  Effect, change in HAMD-17 score: −8.090
Pooled phases, MTHFR 677 CT or TT and BMI >= 30 kg/m^2, with SSRI
  Effect, change in HAMD-28 score: −9.884
Pooled phases, MTHFR 677 CT or TT and HNE-His >= median (11,6), with SSRI
  Effect, change in HAMD-17 score: −9.446
Pooled phases, MTHFR 677 CT or TT and HNE-His >= median, with SSRI
  Effect, change in HAMD-28 score: −9.865
Pooled phases, MTHFR 677 CT or TT and MTR 2756 AG or GG (8,4), with SSRI
  Effect, change in HAMD-17 score: −18.71
Pooled phases, MTHFR 677 CT or TT and MTR 2756 AG or GG, with SSRI
  Effect, change in HAMD-28 score: −23.29
Pooled phases, MTR 2756 AA (45,21), with SSRI
  Effect, change in HAMD-17 score: −0.590
Pooled phases, MTR 2756 AA and BMI < 30 kg/m^2 (17,7), with SSRI
  Effect, change in HAMD-17 score: 3.196
Pooled phases, MTR 2756 AA and BMI < 30 kg/m^2, with SSRI
  Effect, change in HAMD-28 score: 3.352
Pooled phases, MTR 2756 AA and HNE-His < median (26,13), with SSRI
  Effect, change in HAMD-17 score: 1.319
Pooled phases, MTR 2756 AA and HNE-His < median, with SSRI
  Effect, change in HAMD-28 score: 2.085
Pooled phases, MTR 2756 AA and MTRR 66 AA (11,5), with SSRI
  Effect, change in HAMD-17 score: −1.373
Pooled phases, MTR 2756 AA and MTRR 66 AA and HNE-His < median (6,4), with SSRI
  Effect, change in HAMD-17 score: 0.466
Pooled phases, MTR 2756 AA and MTRR 66 AA and HNE-His < median = 3.28 (plasma sample), with SSRI
  Effect, change in HAMD-28 score: −2.221
Pooled phases, MTR 2756 AA and MTRR 66 AA and SAM/SAH >= median (6,3), with SSRI
  Effect, change in HAMD-17 score: −3.98*
Pooled phases, MTR 2756 AA and MTRR 66 AA and SAM/SAH >= median, with SSRI
  Effect, change in HAMD-28 score: −3.74*
Pooled phases, MTR 2756 AA and MTRR 66 AA, with SSRI
  Effect, change in HAMD-28 score: −3.032
Pooled phases, MTR 2756 AA and SAM/SAH >= median (24,12), with SSRI
  Effect, change in HAMD-17 score: 0.054
Pooled phases, MTR 2756 AA and SAM/SAH >= median, with SSRI
  Effect, change in HAMD-28 score: −0.071
Pooled phases, MTR 2756 AA, with SSRI
  Effect, change in HAMD-28 score: −0.047
Pooled phases, MTR 2756 AG or GG and BMI >= 30 kg/m^2 (10,5), with SSRI
  Effect, change in HAMD-17 score: −11.714
Pooled phases, MTR 2756 AG or GG and BMI >= 30 kg/m^2, with SSRI
  Effect, change in HAMD-28 score: −14.433
Pooled phases, MTR 2756 AG or GG and HNE-His >= median (13,7), with SSRI
  Effect, change in HAMD-17 score: −8.072
Pooled phases, MTR 2756 AG or GG and HNE-His >= median = 3.28 (plasma sample), with SSRI
  Effect, change in HAMD-28 score: −9.508
Pooled phases, MTR 2756 AG or GG and MTRR 66 AG or GG (15,7), with SSRI
  Effect, change in HAMD-17 score: −6.976
Pooled phases, MTR 2756 AG or GG and MTRR 66 AG or GG and BMI >= 30 kg/m^2 (8,4), with SSRI
  Effect, change in HAMD-17 score: −10.972
Pooled phases, MTR 2756 AG or GG and MTRR 66 AG or GG and BMI >= 30 kg/m^2, with SSRI
  Effect, change in HAMD-28 score: −15.347
Pooled phases, MTR 2756 AG or GG and MTRR 66 AG or GG and HNE-His >= median (10,4), with SSRI
  Effect, change in HAMD-17 score: −7.942
Pooled phases, MTR 2756 AG or GG and MTRR 66 AG or GG and HNE-His >= median, with SSRI
  Effect, change in HAMD-28 score: −10.241
Pooled phases, MTR 2756 AG or GG and MTRR 66 AG or GG, with SSRI
  Effect, change in HAMD-28 score: −9.348
Pooled phases, MTR 2756 AG or GG and SAM/SAH < median (10,4), with SSRI
  Effect, change in HAMD-17 score: −5.583
Pooled phases, MTR 2756 AG or GG and SAM/SAH < median = 2.71 (plasma sample), with SSRI
  Effect, change in HAMD-28 score: −11.683
Pooled phases, MTR 2756 AG/GG (20,11), with SSRI
  Effect, change in HAMD-17 score: −5.677
Pooled phases, MTR 2756 AG/GG, with SSRI
  Effect, change in HAMD-28 score: −8.243
Pooled phases, MTRR 66 AA and HNE-His < median (8,5), with SSRI
  Effect, change in HAMD-17 score: 2.575
Pooled phases, MTRR 66 AA and HNE-His < median = 3.28 (plasma sample), with SSRI
  Effect, change in HAMD-28 score: −2.626
Pooled phases, MTRR 66 AA and SAM/SAH >= median (9,6), with SSRI
  Effect, change in HAMD-17 score: −2.978
Pooled phases, MTRR 66 AA and SAM/SAH >= median, with SSRI
  Effect, change in HAMD-28 score: −1.221
Pooled phases, MTRR 66 AG or GG and HNE-His >= median (24,11), with SSRI
  Effect, change in HAMD-17 score: −4.850
Pooled phases, MTRR 66 AG or GG and SAM/SAH < median (24,10), with SSRI
  Effect, change in HAMD-17 score: −5.879
Pooled phases, MTRR 66 AG or GG and SAM/SAH < median = 2.71 (plasma sample), with SSRI
  Effect, change in HAMD-28 score: −6.579
Pooled phases, SAM/SAH < median and HNE-His >= median (19,7), with SSRI
  Effect, change in HAMD-17 score: −9.898
Pooled phases, SAM/SAH < median and HNE-His >= median, with SSRI
  Effect, change in HAMD-28 score: −9.500
Pooled phases, SAM/SAH >= median and HNE-His < median (18,8), with SSRI
  Effect, change in HAMD-17 score: 2.107
Pooled phases, SAM/SAH >= median and HNE-His < median, with SSRI
  Effect, change in HAMD-28 score: 2.413
[1]
  Effect, change in HAMD-17 score: BMI*treat: −0.233
  Effect, change in HAMD-28 score: BMI*treat: −0.270
[2]
  Effect, change in HAMD-17 score: HNE-his*treat: 0.626
  Effect, change in HAMD-28 score: HNE-his*treat: 0.685
[3]
  Effect, change in HAMD-17 score: SAM/SAH*treat: 0.882
  Effect, change in HAMD-28 score: SAM/SAH*treat (last line): 1.112
Pooled phases, interaction of base HAMD-17 with the treatment, with SSRI
  Effect, change in HAMD-17 score: baseHAMD-17*treat: −0.025
Pooled phases, interaction with the treatment, with SSRI
  Effect, change in HAMD-28 score: SAM/SAH*treat (first line under HAMD28): 0.882
In combination with an SSRI, FIGS. 4A-4B
  improvement in HDRS-28 or CGI-S, patients with at least one T allele at MTHFR 677 vs no T allele (in words): greater degree of improvement
In combination with an SSRI, FIGS. 5A-5B
  improvement in HAMD-28 or CGI-S, obese (BMI at least 30 kg/m^2) vs non-obese patients (in words): greater degree of improvement
